Reference: PubChem BioAssay (NCI)
“And” between values parts separate entries of the source, which are not always exact repeats. Equal values may be shown once.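 Tested at 5 concentrations; 48 h exposure; 96-well plates; endpoints linearly interpolated, else capped at highest concentration. At the GI50, growth is halved. At the TGI there is no net growth.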

Legend:
Test in all cases: NCI-60 cell line screen, 48 h
[1] = test system: DU-145 prostate
[2] = test system: SK-MEL-28 melanoma
[3] = test system: MOLT-4 leukemia
[4] = test system: LOX IMVI melanoma
[5] = test system: OVCAR-3 ovarian
[6] = test system: BT-549 breast
[7] = test system: 786-0 renal
[8] = test system: HOP-92 NSCLC
[9] = test system: HCT-116 colon
[10] = test system: UO-31 renal
[11] = test system: RPMI-8226 leukemia
[12] = test system: A498 renal
[13] = test system: SNB-19 CNS
[14] = test system: OVCAR-8 ovarian
[15] = test system: UACC-257 melanoma
[16] = test system: K-562 leukemia
[17] = test system: NCI-H226 lung
[18] = test system: HS 578T breast
[19] = test system: SK-OV-3 ovarian

COC(=O)C1=C(C(=O)OC)C(C(=O)c2ccc(Br)cc2)N2N=C(c3ccc(Cl)cc3)C=CC12 (stereo unspecified)
TGI [1]: > 100 µM
TGI [2]: > 100 µM
TGI [3]: > 100 µM
TGI [4]: > 100 µM
TGI [5]: > 100 µM
TGI [6]: > 100 µM
TGI [7]: > 100 µM
TGI [8]: > 100 µM
TGI [9]: > 100 µM
TGI [10]: > 100 µM
TGI [11]: > 100 µM
TGI [12]: > 100 µM
TGI [13]: > 100 µM
TGI [14]: > 100 µM
TGI [15]: > 100 µM
TGI [16]: > 100 µM
TGI [17]: > 100 µM
TGI [18]: > 100 µM
TGI [19]: > 100 µM

CCCN(CCCC(NC(C)=O)C(=O)NCc1ccccc1)C(=O)N(CCCl)N=O (stereo unspecified)
TGI [1]: > 100 µM
TGI [2]: 35.1 µM
TGI [3]: 28 µM
TGI [4]: 31.5 µM
TGI [5]: 53.3 µM
TGI [6]: 54.1 µM
TGI [7]: 19.1 µM
TGI [8]: 46.6 µM
TGI [9]: 29 µM
TGI [10]: 50 µM
TGI [11]: 69 µM
TGI [12]: 31.1 µM
TGI [13]: > 84.9 µM
TGI [14]: 12.7 µM
TGI [15]: 47.6 µM
TGI [16]: 87.6 µM
TGI [17]: 40.1 µM
TGI [18]: > 100 µM
TGI [19]: 63.1 µM

Cc1c(Cl)nc(Nc2nc3ccccc3[nH]2)nc1Cl
TGI [1]: > 100 µM
TGI [2]: > 100 µM
TGI [3]: > 100 µM
TGI [6]: > 100 µM
TGI [7]: > 100 µM
TGI [8]: 18.6 µM
TGI [9]: > 100 µM
TGI [10]: > 100 µM
TGI [11]: > 100 µM
TGI [12]: > 100 µM
TGI [13]: > 100 µM
TGI [14]: > 100 µM
TGI [15]: > 100 µM
TGI [16]: > 100 µM
TGI [17]: > 100 µM
TGI [18]: 82 µM
TGI [19]: > 100 µM

O=[N+]([O-])C1CC/C(=N/O)c2nonc21 (stereo unspecified)
TGI [1]: > 10 µM
TGI [2]: > 10 µM
TGI [3]: > 10 µM
TGI [5]: > 10 µM
TGI [6]: > 10 µM
TGI [7]: > 10 µM
TGI [8]: > 10 µM
TGI [9]: > 10 µM
TGI [10]: > 10 µM
TGI [11]: > 10 µM
TGI [12]: > 10 µM
TGI [13]: > 10 µM
TGI [14]: > 10 µM
TGI [15]: > 10 µM
TGI [16]: > 10 µM
TGI [17]: > 10 µM
TGI [18]: > 10 µM

C1CCC2(CC1)O[C@@H]1[C@@H](O2)[C@@H](O[C@H]2O[C@@H]3COC4(CCCCC4)O[C@H]3[C@@H]3OC4(CCCCC4)O[C@@H]23)O[C@@H]2COC3(CCCCC3)O[C@@H]12
TGI [1]: > 100 µM
TGI [2]: > 100 µM
TGI [3]: > 100 µM
TGI [4]: > 100 µM
TGI [5]: > 100 µM
TGI [6]: > 100 µM
TGI [7]: > 100 µM
TGI [8]: > 100 µM
TGI [9]: > 100 µM
TGI [10]: > 100 µM
TGI [11]: > 100 µM
TGI [12]: > 100 µM
TGI [13]: > 100 µM
TGI [14]: > 100 µM
TGI [15]: > 100 µM
TGI [16]: > 100 µM
TGI [18]: > 100 µM
TGI [19]: > 100 µM

CC(=O)OC(/C=C/c1ccccc1)P1(=O)N(CC(C)(C)C)[C@@H]2CCCC[C@H]2N1CC(C)(C)C (stereo partly specified)
TGI [1]: 23.7 µM and 23.5 µM
TGI [2]: 34.4 µM and 28.5 µM
TGI [3]: 17.1 µM and 14.7 µM
TGI [4]: 24 µM and 24.5 µM
GI50 [5]: 8.41 µM and 3.47 µM
TGI [5]: 25.4 µM and 17.1 µM
TGI [6]: 28.5 µM and 25.9 µM
TGI [7]: 21.4 µM and 21.1 µM
TGI [8]: 26.4 µM
TGI [9]: 15 µM and 13.4 µM
TGI [10]: 19.6 µM and 17 µM
TGI [11]: 12.1 µM
TGI [12]: 21.8 µM
TGI [13]: 23.5 µM and 24.2 µM
TGI [14]: 19.7 µM and 21.6 µM
TGI [15]: 13.2 µM and 11.6 µM
TGI [16]: 21.7 µM and 20.6 µM
TGI [17]: 21.8 µM and 25.7 µM
TGI [18]: 24.5 µM and 27.1 µM
TGI [19]: 37.4 µM and 25.7 µM

CCCCC(C#N)(OP1(=O)OC(c2ccccc2)C(C)N1C)c1ccccc1 (stereo unspecified)
TGI [1]: 43.4 µM
TGI [2]: 31.9 µM
TGI [3]: 35.9 µM
TGI [4]: 36.7 µM
TGI [5]: 31 µM
TGI [6]: 43.6 µM
TGI [7]: 31.8 µM
TGI [8]: 25.8 µM
TGI [9]: 30.4 µM
TGI [10]: 31.4 µM
TGI [11]: 53.2 µM
TGI [12]: 33.6 µM
TGI [13]: 36.4 µM
TGI [14]: 38.8 µM
TGI [15]: 33.7 µM
TGI [16]: 44.8 µM
TGI [18]: 39.3 µM
TGI [19]: 43.7 µM

S=C(NC1=NCC(CN2CCN(c3ccccc3)CC2)O1)Nc1ccccc1 (stereo unspecified)
TGI [1]: > 100 µM
TGI [2]: > 100 µM
TGI [3]: > 100 µM
TGI [4]: 61.8 µM
TGI [5]: > 100 µM
TGI [6]: > 100 µM
TGI [7]: > 100 µM
TGI [8]: > 100 µM
TGI [9]: > 100 µM
TGI [10]: 97.5 µM
TGI [11]: > 100 µM
TGI [12]: > 100 µM
TGI [13]: > 100 µM
TGI [14]: > 100 µM
TGI [15]: > 100 µM
TGI [16]: > 100 µM
TGI [17]: > 100 µM
TGI [18]: > 100 µM
TGI [19]: > 100 µM

CCOC(=O)C1=CNC(C(=O)OCC)C1c1cccn1-c1ccc(Cl)cc1[N+](=O)[O-] (stereo unspecified)
TGI [1]: > 100 µM
TGI [2]: 53.1 µM
TGI [3]: 59.5 µM
TGI [4]: 29.4 µM
TGI [5]: 30.3 µM
TGI [6]: 61.2 µM
TGI [7]: 45.9 µM
TGI [8]: 51.7 µM
TGI [9]: 35.7 µM
TGI [10]: > 100 µM
TGI [12]: > 100 µM
TGI [14]: 90.6 µM
TGI [15]: 70 µM
TGI [16]: 85.9 µM
TGI [17]: 50 µM
TGI [18]: 50.5 µM
TGI [19]: > 100 µM

O=C(c1ccco1)N1CCCN(C(=O)c2ccco2)C1=S
TGI [1]: > 100 µM
TGI [2]: > 100 µM
TGI [3]: > 100 µM
TGI [4]: > 100 µM
TGI [5]: > 100 µM
TGI [6]: > 100 µM
TGI [7]: > 100 µM
TGI [9]: > 100 µM
TGI [10]: > 100 µM
TGI [11]: > 100 µM
TGI [12]: > 100 µM
TGI [13]: > 100 µM
TGI [14]: > 100 µM
TGI [15]: > 100 µM
TGI [16]: > 100 µM
TGI [17]: > 100 µM
TGI [18]: > 100 µM
TGI [19]: > 100 µM

CC[C@]12C=CCN3CC[C@@]4(c5cc(Br)c(OC)cc5N(C)[C@H]4[C@@](O)(C(=O)NN)[C@@H]1O)[C@@H]32
TGI [1]: > 100 µM
TGI [2]: > 100 µM
TGI [3]: > 100 µM
TGI [4]: > 100 µM
TGI [5]: > 100 µM
TGI [6]: > 100 µM
TGI [7]: > 100 µM
TGI [8]: > 100 µM
TGI [9]: > 100 µM
TGI [10]: > 100 µM
TGI [12]: > 100 µM
TGI [13]: > 100 µM
TGI [14]: > 100 µM
TGI [15]: > 100 µM
TGI [16]: > 100 µM
TGI [17]: > 100 µM
TGI [18]: > 100 µM
TGI [19]: > 100 µM

COC(=O)c1c(O)ccc2c1c1c(n2Cc2ccccc2Cl)C(=O)c2ccccc2C1=O
TGI [1]: 29 µM
TGI [2]: 29.4 µM
TGI [3]: 56.1 µM
TGI [5]: 21.8 µM
TGI [6]: 29.2 µM
TGI [7]: 36.4 µM
TGI [8]: 29.8 µM
TGI [9]: 31.2 µM
TGI [10]: 24.8 µM
TGI [11]: 29.5 µM
TGI [12]: 31.3 µM
TGI [13]: 33.7 µM
TGI [14]: 51.5 µM
TGI [15]: 32.8 µM
TGI [16]: 97.3 µM
TGI [17]: 36.6 µM
TGI [18]: 59 µM
TGI [19]: 27.2 µM

CCSc1sc(=Nc2ccc(N=c3sc(C)c(SC)s3)cc2)sc1-c1ccc(C)cc1
TGI [1]: > 100 µM
TGI [2]: > 100 µM
TGI [3]: > 100 µM
TGI [4]: > 100 µM
TGI [5]: > 100 µM
TGI [6]: > 100 µM
TGI [7]: > 100 µM
TGI [8]: > 100 µM
TGI [9]: > 100 µM
TGI [10]: > 100 µM
TGI [11]: > 100 µM
TGI [12]: > 100 µM
TGI [13]: > 100 µM
TGI [14]: > 100 µM
TGI [15]: > 100 µM
TGI [16]: > 100 µM
TGI [18]: > 100 µM
TGI [19]: > 100 µM
